The text below walks through data of US20250346585A1 (Alexion Pharmaceuticals, Inc., priority 2022, published 2025).

Human complement C1s enzyme, sequence (P09871 438-688 limits assumed): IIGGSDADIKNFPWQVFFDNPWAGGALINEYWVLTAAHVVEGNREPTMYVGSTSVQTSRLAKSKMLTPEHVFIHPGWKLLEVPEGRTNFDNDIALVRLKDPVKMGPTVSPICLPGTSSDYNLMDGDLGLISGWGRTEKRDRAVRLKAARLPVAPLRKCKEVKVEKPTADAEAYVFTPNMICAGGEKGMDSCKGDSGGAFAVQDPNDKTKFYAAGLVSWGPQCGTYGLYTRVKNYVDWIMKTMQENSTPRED
Human complement C1s enzyme, sequence (P09871 16-437 partner limits assumed): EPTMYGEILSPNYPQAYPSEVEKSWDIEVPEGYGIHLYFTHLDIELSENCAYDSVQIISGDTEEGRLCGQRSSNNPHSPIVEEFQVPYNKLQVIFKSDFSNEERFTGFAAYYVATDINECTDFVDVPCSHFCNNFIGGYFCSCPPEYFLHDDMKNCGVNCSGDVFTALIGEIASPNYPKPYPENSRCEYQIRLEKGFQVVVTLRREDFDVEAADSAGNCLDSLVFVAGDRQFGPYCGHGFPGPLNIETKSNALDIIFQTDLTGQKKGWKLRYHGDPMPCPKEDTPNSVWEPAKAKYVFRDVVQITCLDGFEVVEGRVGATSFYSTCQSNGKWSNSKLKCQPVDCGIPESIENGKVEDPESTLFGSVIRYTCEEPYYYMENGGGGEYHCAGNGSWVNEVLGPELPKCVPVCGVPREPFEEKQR

The experiment deals with Human complement C1s enzyme (Homo sapiens (Human), UniProt P09871). The experiment can be described thus: Human C1s enzyme assay. The class given is biochemical. As to conditions: Human complement C1s enzyme 1.16 nM, substrate Z-L-Lys-SBzl 100 μM, assay of Example 3; read-out: IC50 (Stars). Put shortly:
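IC50 derived by nonlinear regression of rate versus concentration, with rate taken from A405 kinetics (30 s intervals, 30 min) after adding 100 μM each Z-L-Lys-SBzl and DTNB. C1s from human serum, 1.16 nM, exposed to compound for 5 min at RT beforehand; buffer 50 mM Tris, 1 M NaCl, pH 7.5.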
Usually IC50 stands for the concentration at which inhibition is half-maximal. Turning to `C[C@@H](NC(=O)[C@@H]1C[C@@](C)(F)CN1C(=O)CNC(=O)c1ccc2c(c1)-c1ccccc1C2(F)F)c1cc(C(=N)N)cs1` [Compound 268, (2S,4R)—N—((R)-1-(4-carbamimidoylthiophen-2-yl)ethyl)-1-((9,9-difluoro-9H-fluorene-3-carbonyl)glycyl)-4-fluoro-4-methylpyrrolidine-2-carboxamide], the IC50 is under 100 nM.

Consider `CC(=O)NCCNC[C@@]1(F)C[C@@H](C(=O)N[C@H](C)c2cc(C(=N)N)cs2)N(C(=O)CNC(=O)c2ccc3c(c2)-c2ccccc2C3(F)F)C1` [Compound 269, (2S,4S)-4-(((2-acetamidoethyl)amino)methyl)-N—((R)-1-(4-carbamimidoylthiophen-2-yl)ethyl)-1-((9,9-difluoro-9H-fluorene-3-carbonyl)glycyl)-4-fluoropyrrolidine-2-carboxamide], for which the IC50 is under 100 nM.

With `C[C@@H](NC(=O)[C@@H]1CC(=C(F)F)CN1C(=O)CNC(=O)c1ccc2c(c1)-c1ccccc1C2(F)F)c1cc(C(=N)N)cs1` [Compound 270, (S)—N—((R)-1-(4-carbamimidoylthiophen-2-yl)ethyl)-1-((9,9-difluoro-9H-fluorene-3-carbonyl)glycyl)-4-(difluoromethylene)pyrrolidine-2-carboxamide], the IC50 is under 100 nM.

As to `C[C@@H](NC(=O)[C@@H]1CC2(CN1C(=O)CNC(=O)c1ccc3c(c1)Oc1ccccc1S3)OCCO2)c1cc(C(=N)N)cs1` [Compound 271, (S)—N—((R)-1-(4-carbamimidoylthiophen-2-yl)ethyl)-7-((phenoxathiine-3-carbonyl)glycyl)-1,4-dioxa-7-azaspiro[4.4]nonane-8-carboxamide], the IC50 was under 100 nM.

On to `C[C@@H](NC(=O)[C@@H]1CC2(CN1C(=O)CNC(=O)c1ccc(O)cc1)OCCO2)c1cc(C(=N)N)cs1` [Compound 272, (S)—N—((R)-1-(4-carbamimidoylthiophen-2-yl)ethyl)-7-((4-hydroxybenzoyl)glycyl)-1,4-dioxa-7-azaspiro[4.4]nonane-8-carboxamide], for which the IC50 is under 100 nM.

With `N=C(N)c1csc(CNC(=O)[C@@H]2CC3(CNC3)CN2C(=O)CNC(=O)CCCOc2ccccc2)c1` [Compound 273, (S)—N-((4-carbamimidoylthiophen-2-yl)methyl)-6-((4-phenoxybutanoyl)glycyl)-2,6-diazaspiro[3.4]octane-7-carboxamide], the IC50 is under 100 nM.

With `C[C@@H](NC(=O)[C@@H]1C[C@]2(Cn3ccnn3)C[C@@H]2N1C(=O)CNC(=O)c1ccc2c(c1)-c1ccccc1C2(F)F)c1cc(C(=N)N)cs1` [Compound 274, (1S,3S,5S)-5-((1H-1,2,3-triazol-1-yl)methyl)-N—((R)-1-(4-carbamimidoylthiophen-2-yl)ethyl)-2-((9,9-difluoro-9H-fluorene-3-carbonyl)glycyl)-2-azabicyclo[3.1.0]hexane-3-carboxamide], the IC50 was under 100 nM.

On to `C[C@@H](NC(=O)[C@@H]1C[C@]2(C)C[C@@H]2N1C(=O)CNC(=O)c1ccc(Oc2ccccc2)cc1)c1cc(CC(=N)N)cs1` [Compound 276, (1S,3S,5S)—N—((R)-1-(4-(2-amino-2-iminoethyl)thiophen-2-yl)ethyl)-5-methyl-2-((4-phenoxybenzoyl)glycyl)-2-azabicyclo[3.1.0]hexane-3-carboxamide], for which the IC50 was under 100 nM.

Consider `COC1c2ccccc2-c2cc(C(=O)NCC(=O)N3CC4(C[C@H]3C(=O)N[C@H](C)c3cc(C(=N)N)cs3)OCCO4)ccc21` (stereo partly drawn) [Compound 277, (8S)—N—((R)-1-(4-carbamimidoylthiophen-2-yl)ethyl)-7-((9-methoxy-9H-fluorene-3-carbonyl)glycyl)-1,4-dioxa-7-azaspiro[4.4]nonane-8-carboxamide], for which the IC50 is under 100 nM.

In the case of `CO[C@@H]1C[C@@H](C(=O)N[C@H](C)c2cc(C(=N)N)cs2)N(C(=O)CNC(=O)c2ccc3cc4ccccc4cc3c2)C1` [Compound 278, (2S,4R)-1-((anthracene-2-carbonyl)glycyl)-N—((R)-1-(4-carbamimidoylthiophen-2-yl)ethyl)-4-methoxypyrrolidine-2-carboxamide], the IC50 was under 100 nM.

Regarding `C[C@@H](NC(=O)[C@@H]1CC2(CN1C(=O)CNC(=O)c1ccc3c(c1)oc1ccccc13)OCCO2)c1cc(C(=N)N)cs1` [Compound 279, (S)—N—((R)-1-(4-carbamimidoylthiophen-2-yl)ethyl)-7-((dibenzo[b,d]furan-3-carbonyl)glycyl)-1,4-dioxa-7-azaspiro[4.4]nonane-8-carboxamide], the IC50 is under 100 nM.

On to `CC(C)S(=O)(=O)[C@@H]1C[C@@H](C(=O)N[C@H](C)c2cc(C(=N)N)cs2)N(C(=O)CNC(=O)c2ccc3c(c2)-c2ccccc2C3(F)F)C1` [Compound 280, (2S,4R)—N—((R)-1-(4-carbamimidoylthiophen-2-yl)ethyl)-1-((9,9-difluoro-9H-fluorene-3-carbonyl)glycyl)-4-(isopropylsulfonyl)pyrrolidine-2-carboxamide], for which the IC50 was under 100 nM.

On to `C[C@@H](NC(=O)[C@@H]1C[C@]2(Cn3cncn3)C[C@@H]2N1C(=O)CNC(=O)c1ccc2c(c1)-c1ccccc1C2(F)F)c1cc(C(=N)N)cs1` [Compound 281, (1S,3S,5S)-5-((1H-1,2,4-triazol-1-yl)methyl)-N—((R)-1-(4-carbamimidoylthiophen-2-yl)ethyl)-2-((9,9-difluoro-9H-fluorene-3-carbonyl)glycyl)-2-azabicyclo[3.1.0]hexane-3-carboxamide], for which the IC50 was under 100 nM.

For `O=C(NCC(=O)N1CC2(C[C@H]1C(=O)NCc1cc(Nc3nccs3)cs1)OCCO2)c1ccc(Oc2ccc(F)cc2)cc1` [Compound 282, (S)-7-((4-(4-fluorophenoxy)benzoyl)glycyl)-N-((4-(thiazol-2-ylamino)thiophen-2-yl)methyl)-1,4-dioxa-7-azaspiro[4.4]nonane-8-carboxamide], the IC50 is over 1000 nM.

Take `O=C(NCC(=O)N1CC2(C[C@H]1C(=O)NCc1cc(Nc3ncc[nH]3)cs1)OCCO2)c1ccc(Oc2ccc(F)cc2)cc1` [Compound 283, (S)-N-((4-((1H-imidazol-2-yl)amino)thiophen-2-yl)methyl)-7-((4-(4-fluorophenoxy)benzoyl)glycyl)-1,4-dioxa-7-azaspiro[4.4]nonane-8-carboxamide]: the IC50 was over 1000 nM.

For `O=C(NCC(=O)N1CC2(C[C@H]1C(=O)NCc1cc(NC3=NCCS3)cs1)OCCO2)c1ccc(Oc2ccc(F)cc2)cc1` [Compound 284, (S)-N-((4-((4,5-dihydrothiazol-2-yl)amino)thiophen-2-yl)methyl)-7-((4-(4-fluorophenoxy)benzoyl)glycyl)-1,4-dioxa-7-azaspiro[4.4]nonane-8-carboxamide], the IC50 was over 1000 nM.

Take `Nc1cccc(Nc2csc(CNC(=O)[C@@H]3CC4(CN3C(=O)CNC(=O)c3ccc(Oc5ccc(F)cc5)cc3)OCCO4)c2)n1` [Compound 285, (S)-N-((4-((6-aminopyridin-2-yl)amino)thiophen-2-yl)methyl)-7-((4-(4-fluorophenoxy)benzoyl)glycyl)-1,4-dioxa-7-azaspiro[4.4]nonane-8-carboxamide]: the IC50 is over 1000 nM.

For `CS(=O)(=O)N(c1csc(CNC(=O)[C@@H]2CC3(CN2C(=O)CNC(=O)c2ccc(Oc4ccc(F)cc4)cc2)OCCO3)c1)S(C)(=O)=O` [Compound 286, (S)-7-((4-(4-fluorophenoxy)benzoyl)glycyl)-N-((4-((N-(methylsulfonyl)methyl)sulfonamido)thiophen-2-yl)methyl)-1,4-dioxa-7-azaspiro[4.4]nonane-8-carboxamide], the half-maximal inhibitory concentration (IC50) is over 1000 nM.
